# Source: patent publication US12344603B2 (Genentech, Inc., priority 2020, dated 2025)
# Where a name gives a salt, the structure may show the parent alone.
# Target: IRE1α (Homo sapiens (Human), UniProt O75460, D688N)
# Test: IRE1α TR-FRET competition binding assay (IRE1α HTRF)
# Conditions: TR-FRET competition binding to kinase domain of IRE1α
# Method in brief: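 Competition of compounds against an Alexa fluor 647 ATP-site probe (2 nM final) for the His-tagged kinase domain (0.25 nM final), detected via 2 nM Eu anti-His antibody by TR-FRET, 665 and 615 nm emission. Protein–antibody premix 1 h, 4° C; reaction 1 h, room temperature, pH 7.5 HEPES buffer.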
# Sequence of IRE1α (O75460 547-977 D688N): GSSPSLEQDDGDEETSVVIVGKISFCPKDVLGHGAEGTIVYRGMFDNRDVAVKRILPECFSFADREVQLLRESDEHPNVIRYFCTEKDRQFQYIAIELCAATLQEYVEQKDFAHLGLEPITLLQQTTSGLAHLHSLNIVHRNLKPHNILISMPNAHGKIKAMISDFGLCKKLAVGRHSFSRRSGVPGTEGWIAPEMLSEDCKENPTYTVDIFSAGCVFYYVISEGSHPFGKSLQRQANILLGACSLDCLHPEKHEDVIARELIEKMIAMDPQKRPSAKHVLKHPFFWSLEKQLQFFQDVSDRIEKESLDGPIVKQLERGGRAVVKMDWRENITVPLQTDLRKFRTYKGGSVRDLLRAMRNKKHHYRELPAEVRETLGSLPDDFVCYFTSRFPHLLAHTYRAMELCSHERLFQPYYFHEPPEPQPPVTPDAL
row,Compound,IC50
1,"Cn1c(=O)c(-c2cc(F)c(NS(=O)(=O)Cc3ccccc3)c3ccccc23)cc2cnc(N[C@H]3CCCNC3)nc21 [Compound 6, (S)—N-(2-Fluoro-4-(8-methyl-7-oxo-2-(piperidin-3-ylamino)-7,8-dihydropyrido[2,3-d]pyrimidin-6-yl)naphthalen-1-yl)-1-phenylmethanesulfonamide]",0.89 nM
2,"CC(C)n1c(=O)c(-c2ccc(NS(=O)(=O)CCC(F)(F)F)c(F)c2)cc2cnc(N[C@H]3CC[C@H](N(C)CC4COC4)CC3)nc21 [Compound 204, 3,3,3-Trifluoro-N-(2-fluoro-4-(8-isopropyl-2-(((1,4-trans)-4-(methyl(oxetan-3-ylmethyl)amino)cyclohexyl)amino)-7-oxo-7,8-dihydropyrido[2,3-d]pyrimidin-6-yl)phenyl)propane-1-sulfonamide]",1 nM
3,"O=c1c(-c2ccc(NS(=O)(=O)Cc3ccccc3)c(F)c2F)cc2cnc(N[C@@H]3CNC[C@@H](F)C3)nc2n1CC(F)F [Compound 11, N-(4-(8-(2,2-Difluoroethyl)-2-(((3S,5S)-5-fluoropiperidin-3-yl)amino)-7-oxo-7,8-dihydropyrido[2,3-d]pyrimidin-6-yl)-2,3-difluorophenyl)-1-phenylmethanesulfonamide]",1.1 nM
4,"O=c1c(-c2ccc(NS(=O)(=O)Cc3ccccc3F)c(F)c2)cc2cnc(N[C@@H]3CNC[C@@H](F)C3)nc2n1CCO [Compound 208, N-[2-Fluoro-4-[2-[[(3S,5S)-5-fluoro-3-piperidyl]amino]-8-(2-hydroxyethyl)-7-oxo-pyrido[2,3-d]pyrimidin-6-yl]phenyl]-1-(2-fluorophenyl)methanesulfonamide]",1.2 nM
5,"Cc1ccc(CS(=O)(=O)Nc2c(F)cc(-c3cc4cnc(N[C@H]5CC[C@H](N(C)C)CC5)nc4n(C(C)C)c3=O)cc2F)cc1 [Compound 120, N-(4-(2-(((1r,4r)-4-(Dimethylamino)cyclohexyl)amino)-8-isopropyl-7-oxo-7,8-dihydropyrido[2,3-d]pyrimidin-6-yl)-2,6-difluorophenyl)-1-(p-tolyl)methanesulfonamide]",1.7 nM
6,"N-(2,3,6-trifluoro-4-(8-isopropyl-2-((4-((2-methoxyethyl)(methyl)amino)cyclohexyl)amino)-7-oxo-7,8-dihydropyrido[2,3-d]pyrimidin-6-yl)phenyl)propane-1-sulfonamide [Compound 101A]",0.35 nM
7,"CC(C)n1c(=O)c(-c2ccc(NS(=O)(=O)CCC(C)(F)F)c(F)c2)nc2cnc(N[C@@H]3CNC[C@H](CF)C3)nc21 [Compound 77, 3,3-Difluoro-N-[2-fluoro-4-[2-[[(3S,5R)-5-(fluoromethyl)-3-piperidyl]amino]-8-isopropyl-7-oxo-pteridin-6-yl]phenyl]butane-1-sulfonamide]",0.8 nM
8,"O=c1c(-c2ccc(NS(=O)(=O)Cc3ccccc3)c(F)c2F)cc2cnc(N[C@@H]3CNC[C@@H](F)C3)nc2n1CC(F)(F)F [Compound 40, N-(2,3-Difluoro-4-(2-(((3S,5S)-5-fluoropiperidin-3-yl)amino)-7-oxo-8-(2,2,2-trifluoroethyl)-7,8-dihydropyrido[2,3-d]pyrimidin-6-yl)phenyl)-1-phenylmethanesulfonamide]",1.7 nM
9,"CC(C)n1c(=O)c(-c2cc(F)c(NS(=O)(=O)CCC(F)(F)F)c(F)c2)cc2cnc(NC3CCC(N(C)C)C(F)C3)nc21 (single isomer, unassigned) [Compound 118A, N-(4-(2-((4-(Dimethylamino)-3-fluorocyclohexyl)amino)-8-isopropyl-7-oxo-7,8-dihydropyrido[2,3-d]pyrimidin-6-yl)-2,6-difluorophenyl)-3,3,3-trifluoropropane-1-sulfonamide]",0.73 nM
10,"CC(C)n1c(=O)c(-c2cc(F)c(NCC(O)C(F)(F)F)c(F)c2F)cc2cnc(N[C@H]3CC[C@H](N(C)C)CC3)nc21 (stereo partly drawn) [Compound 99A, 2-(((1r,4r)-4-(Dimethylamino)cyclohexyl)amino)-8-isopropyl-6-(2,3,5-trifluoro-4-((3,3,3-trifluoro-2-hydroxypropyl)amino)phenyl)pyrido[2,3-d]pyrimidin-7(8H)-one]",68 nM

# More lines, now with the values ahead:
row,IC50,Compound
1,0.6 nM,"CC(C)n1c(=O)c(-c2ccc(NS(=O)(=O)c3ccccc3)c(F)c2)nc2cnc(N[C@@H]3CNC[C@@H](F)C3)nc21 [Compound 74, N-[2-Fluoro-4-[2-[[(3S,5S)-5-fluoro-3-piperidyl]amino]-8-isopropyl-7-oxo-pteridin-6-yl]phenyl]benzenesulfonamide]"
2,0.18 nM,"CC(C)n1c(=O)c(-c2cc(F)c(NS(=O)(=O)Cc3ccccc3)c(F)c2)cc2cnc(N[C@H]3CC[C@H](N(C)C)CC3)nc21 [Compound 117, N-(4-(2-(((1r,4r)-4-(Dimethylamino)cyclohexyl)amino)-8-isopropyl-7-oxo-7,8-dihydropyrido[2,3-d]pyrimidin-6-yl)-2,6-difluorophenyl)-1-phenylmethanesulfonamide]"
3,0.3 nM,"CC(C)n1c(=O)c(-c2ccc(NS(=O)(=O)CC3CC4(C3)CC4(F)F)c(F)c2)nc2cnc(N[C@H]3CC[C@H](N(C)C)CC3)nc21 (stereo partly drawn) [Example 262, 1-(2,2-Difluorospiro[2.3]hexan-5-yl)-N-[4-[2-[[4-(dimethylamino)cyclohexyl]amino]-8-isopropyl-7-oxo-pteridin-6-yl]-2-fluoro-phenyl]methanesulfonamide]"
4,0.2 nM,"CC(C)n1c(=O)c(-c2ccc(NS(=O)(=O)[C@@H]3C[C@H]3c3ccccc3)c(F)c2)nc2cnc(N[C@H]3CC[C@H](N(C)C)CC3)nc21 [Example 274, (1R,2S)—N-(4-(2-(((1r,4r)-4-(Dimethylamino)cyclohexyl)amino)-8-isopropyl-7-oxo-7,8-dihydropteridin-6-yl)-2-fluorophenyl)-2-phenylcyclopropane-1-sulfonamide]"
5,0.2 nM,"Cc1ccc(CS(=O)(=O)Nc2c(F)cc(-c3nc4cnc(N[C@H]5CC[C@H](N(C)C)CC5)nc4n(C(C)C)c3=O)cc2F)cc1 [Example 246, N-[4-[2-[[4-(Dimethylamino)cyclohexyl]amino]-8-isopropyl-7-oxo-pteridin-6-yl]-2,6-difluoro-phenyl]-1-(p-tolyl)methanesulfonamide]"
6,0.63 nM,"CC(C)n1c(=O)c(-c2cc(F)c(NS(=O)(=O)Cc3ccccc3F)c(F)c2F)cc2cnc(N[C@@H]3CNC[C@@H](O)C3)nc21 (racemic) [Compound 87, 1-(2-Fluorophenyl)-N-(2,3,6-trifluoro-4-(2-((5-hydroxypiperidin-3-yl)amino)-8-isopropyl-7-oxo-7,8-dihydropyrido[2,3-d]pyrimidin-6-yl)phenyl)methanesulfonamide]"
7,0.25 nM,"CC(C)n1c(=O)c(-c2cc(F)c(NS(=O)(=O)CCC(F)(F)F)cc2F)cc2cnc(N[C@H]3CC[C@H](N(C)C)CC3)nc21 [Compound 71, N-(4-(2-(((1,4-trans)-4-(Dimethylamino)cyclohexyl)amino)-8-isopropyl-7-oxo-7,8-dihydropyrido[2,3-d]pyrimidin-6-yl)-2,5-difluorophenyl)-3,3,3-trifluoropropane-1-sulfonamide formate]"
8,0.3 nM,"CC(C)n1c(=O)c(-c2ccc(NS(=O)(=O)CC3CC(F)(F)C3)c(F)c2)nc2cnc(N[C@H]3CC[C@H](N(C)C)CC3)nc21 [Example 279, 1-(3,3-Difluorocyclobutyl)-N-[4-[2-[[4-(dimethylamino)cyclohexyl]amino]-8-isopropyl-7-oxo-pteridin-6-yl]-2-fluoro-phenyl]methanesulfonamide]"
9,0.14 nM,"CC(C)n1c(=O)c(-c2ccc(NS(=O)(=O)Cc3ccc(F)cc3)c(F)c2)nc2cnc(N[C@H]3CC[C@H](N(C)CCF)CC3)nc21 [Compound 176, N-(2-Fluoro-4-(2-(((1r,4r)-4-((2-fluoroethyl)(methyl)amino)cyclohexyl)amino)-8-isopropyl-7-oxo-7,8-dihydropteridin-6-yl)phenyl)-1-(4-fluorophenyl)methanesulfonamide]"
10,0.13 nM,"CC(C)n1c(=O)c(-c2ccc(NS(=O)(=O)Cc3ccccc3)c(F)c2)nc2cnc(N[C@H]3CC[C@H](N(C)C)CC3)nc21 [Compound 68, N-(4-(2-(((1r,4r)-4-(Dimethylamino)cyclohexyl)amino)-8-isopropyl-7-oxo-7,8-dihydropteridin-6-yl)-2-fluorophenyl)-1-phenylmethanesulfonamide]"
11,0.41 nM,"CC(C)n1c(=O)c(-c2ccc(NS(=O)(=O)CCC(F)(F)F)c(F)c2)cc2cnc(N[C@H]3CC[C@H](N4CCC4)CC3)nc21 [Compound 198, N-(4-(2-(((1,4-trans)-4-(Azetidin-1-yl)cyclohexyl)amino)-8-isopropyl-7-oxo-7,8-dihydropyrido[2,3-d]pyrimidin-6-yl)-2-fluorophenyl)-3,3,3-trifluoropropane-1-sulfonamide formate]"
12,0.19 nM,"CC(C)n1c(=O)c(-c2cc(F)c(NS(=O)(=O)Cc3ccccc3)c(F)c2F)cc2cnc(N[C@@H]3CNC[C@@H](F)C3)nc21 [Compound 26, 1-Phenyl-N-(2,3,6-trifluoro-4-(2-(((3S,5S)-5-fluoropiperidin-3-yl)amino)-8-isopropyl-7-oxo-7,8-dihydropyrido[2,3-d]pyrimidin-6-yl)phenyl)methanesulfonamide]"
13,0.2 nM,"CC(C)n1c(=O)c(-c2ccc(NS(=O)(=O)CC3(C(F)F)CCCC3)c(F)c2)nc2cnc(N[C@H]3CC[C@H](N(C)C)CC3)nc21 [Example 266, 1-[1-(Difluoromethyl)cyclopentyl]-N-[4-[2-[[4-(dimethylamino)cyclohexyl]amino]-8-isopropyl-7-oxo-pteridin-6-yl]-2-fluoro-phenyl]methanesulfonamide]"
14,0.16 nM,"CC(C)n1c(=O)c(-c2cc(F)c(NS(=O)(=O)Cc3ccccc3F)c(F)c2F)cc2cnc(N[C@@H]3CNC[C@@H](F)C3)nc21 [Compound 86, 1-(2-Fluorophenyl)-N-(2,3,6-trifluoro-4-(2-(((3S,5S)-5-fluoropiperidin-3-yl)amino)-8-isopropyl-7-oxo-7,8-dihydropyrido[2,3-d]pyrimidin-6-yl)phenyl)methanesulfonamide]"
